“Also recorded” adds a separate entry of the source. Bridge positions count the residues as written; N and C are the ends. Square brackets hold non-standard residues; d marks the D form. Ends that are not written are not given here. dOrn = NCCC[C@@H](N)C(=O)O; Orn = NCCC[C@H](N)C(=O)O
Each substance was assayed on S. pneumoniae (assay: Kill or inhibit growth/proliferation; morphology, biofilm and growth disruption (Tables 5, 6)). Settings: not given.
Type: cell-based, Streptococcus pneumoniae
Parameters: key: A: Peptide aggregates; B: Less hyphal formation; Clumps; Diffuse clumps and small polyps; F: Diffuse growth; H: Thin; I: Growth inhibition; Microcolony formation; Rippled; Small polyps; Thick; W: Halo formation on top, microlonies on bottom
For “PF-220 (VDPADDGTRHIRPEDGDPIEIDE; Peptide with targeting and/or antimicrobial activity)”, the “Organism, effect” value was “S. pneumoniae (H)”.
With “PF-415 (MIDVTIGQKSKTGAFNASYSICFSGENFSF; Peptide with targeting and/or antimicrobial activity)” the “Organism, effect” value was “S. pneumoniae (D)”.
With “PF-419 (VVTGKVGSLPQIK; Peptide with targeting and/or antimicrobial activity)” the “Organism, effect” value was “S. pneumoniae (H)”.
With “PF-449 (MPTTKSKQKGWTNTKKASNTQ; Peptide with targeting and/or antimicrobial activity)” the “Organism, effect” value was “S. pneumoniae (H)”.
In the case of “PF-455 (MARNDDDIKKIKGTLGQSPEVYGERKLPYT; Peptide with targeting and/or antimicrobial activity)”, the “Organism, effect” value is reported as “S. pneumoniae (A)”.
In the case of “PF-468 (EDNKDKKDKKDK; Peptide with targeting and/or antimicrobial activity)”, the “Organism, effect” value is reported as “S. pneumoniae (H)”.
For “PF-485 (KNSMSRSIALID; Peptide with targeting and/or antimicrobial activity)”, the “Organism, effect” value was “S. pneumoniae (A)”.
With “PF-644 (chain 1 TSGLIIGENGLNGL; chain 2 TSGLIIGENGLNGL; Peptide with targeting and/or antimicrobial activity)” the “Organism, effect” value was “S. pneumoniae (H)”.
With “PF-651 (chain 1 PRWPTGAGRHR; chain 2 PRWPTGAGRHR; Peptide with targeting and/or antimicrobial activity)” the “Organism, effect (morphology, biofilm and growth disruption)” value was “S. pneumoniae (H)”.
For “PF-652 (chain 1 FLAPARPDLQAQRQALAQ; chain 2 FLAPARPDLQAQRQALAQ; Peptide with targeting and/or antimicrobial activity)”, the “Organism, effect (morphology, biofilm and growth disruption)” value was “S. pneumoniae (A)”.

What follows are substances tested on microorganisms (e.g., bacteria, yeasts, fungi) (assay: Targeting peptide binding to target microorganisms (Table 3)). Settings: microorganism the targeting peptide binds; binding in aqueous buffers varied by peptide solubility, preferably 1x PBS.
For “PF-S024 (SKRGRKRKDRRKKKANHGKRPNS; Peptide with targeting and/or antimicrobial activity)”, the “Target(s)” value was “Corynebacteria”.
With “Py Pf 12 ([dS]KG[Orn][dS]SGK[dOrn]ES; lactam 8-C; not fully specified)” the “Target(s)” value was “P. fluorescens”.
“TT-305 (ARNALNMRDVPVDAAIIGIIDGMDEE; Peptide with targeting and/or antimicrobial activity)” was tested, and the “Target(s)” value was “F. nucleatum”.
With “TT-306 (KILNEAEGKLLKVIEKNGEIDIEEI; Peptide with targeting and/or antimicrobial activity)” the “Target(s)” value was “F. nucleatum”.
For “TT-307 (NGDKKAKEELDKWDEVIKELNIQF; Peptide with targeting and/or antimicrobial activity)”, the “Target(s)” value was “F. nucleatum”.
For “TT-308 (GLVIIPNLIALIILFSQVRQQTKDYFSNPKLSSR; Peptide with targeting and/or antimicrobial activity)”, the “Target(s)” value was “F. nucleatum”.
For “TT-309 (EPLPLTKYDKKDTEMKKVFKEILAGKVGYEKEEE; Peptide with targeting and/or antimicrobial activity)”, the “Target(s)” value was “F. nucleatum”.
“TT-310 (TKLKKNNKLLSAKKENTLHTKDK; Peptide with targeting and/or antimicrobial activity)” was tested, and the “Target(s)” value was “F. nucleatum”.
For “TT-311 (AIFDAMHNL; Peptide with targeting and/or antimicrobial activity)”, the “Target(s)” value was “S. mutans; also recorded: S. sobrinus”.

Same assay, conditions: peptide binding in aqueous buffers varied by peptide solubility; preferably 1x PBS
“PF-644 (chain 1 TSGLIIGENGLNGL; chain 2 TSGLIIGENGLNGL; Peptide with targeting and/or antimicrobial activity)” was tested, and the “Target(s) (microorganisms bound by the targeting peptide)” value was “Mycobacteria spp”.
With “PF-651 (chain 1 PRWPTGAGRHR; chain 2 PRWPTGAGRHR; Peptide with targeting and/or antimicrobial activity)” the “Target(s) (microorganisms bound by the targeting peptide)” value was “Mycobacteria spp”.
In the case of “PF-652 (chain 1 FLAPARPDLQAQRQALAQ; chain 2 FLAPARPDLQAQRQALAQ; Peptide with targeting and/or antimicrobial activity)”, the “Target(s) (microorganisms bound by the targeting peptide)” value is reported as “Mycobacteria spp”.
With “PF-S026 (TELKYNGEEYLLLTQRDILAVIEK; Peptide with targeting and/or antimicrobial activity)” the “Target(s) (microorganisms bound by the targeting peptide)” value was “S. epidermidis and MRSA and C. jeikeium”.
For “PF-S029 (TSDTQSQSPWLFDNADIVNIYPVQLMHSSDND; Peptide with targeting and/or antimicrobial activity)”, the “Target(s) (microorganisms bound by the targeting peptide)” value was “M. luteus; also recorded: P. mirabilis; also recorded: E. coli; also recorded: C. albicans; also recorded: C. jeikeium; also recorded: C. jejuni”.
For Organism, effect (morphology, biofilm and growth disruption) in this document: test concentration or dose not given here.
For Organism, effect in this document: test concentration or dose not given here.
